This is an account of results in patent publication US11332492B2, “CD73 inhibitors and therapeutic uses thereof” (Jiangsu Hengrui Medicine Co., Ltd., priority 2018, dated 2022).

For orientation: IC50 means the concentration at which inhibition is half-maximal.

Test [1] concerns the target recombinant human 5′-nucleotidase (CD73) (Homo sapiens (Human), UniProt P21589). The test is described as follows: Inhibition of CD73 enzyme activity in vitro (Malachite Green phosphate detection, CMP substrate). Conditions: 0.34 nM recombinant human CD73, 2 h pre-incubation at 37° C., 45 μM CMP; read-out: IC50 values of biochemical inhibition of CD73 enzymatic activity. As for the experimental part: Test Example 1, Test of the Compounds of the Present Invention for their Inhibition on CD73 Enzyme Activity In Vitro
CD73 enzyme, an ecto-5′-Nucleotidase, converts extracellular nucleoside-5′-monophosphates to nucleosides, with AMP or CMP as the preferred substrate. In this assay, recombinant human CD73 expressed from a Chinese hamster ovary cell line (R&D Systems) was used to convert cytidine monophosphate (CMP) to cytidine and phosphate. Before adding substrate, CD73 enzyme was pre-incubated with compounds for 2 hours. The amount of phosphate was then measured by Malachite Green Phosphate Detection Kit. The experimental method is summarized as follows:
Compounds are first dissolved in DMSO to 10 mM as a stock solution. When determining the IC50 of the compound, prepare 3-fold serial dilutions with a highest concentration of 125 μM for a total of 12 concentration points and ensure each dilution containing equal amount of DMSO. In each well of 384-well plate, 0.34 nM of recombinant human 5′-nucleotidase (CD73) was pre-incubated at 37° C. for 2 hours with the compounds tested in assay buffer containing 20 mM HEPES buffer (pH 7.4), 137 mM NaCl, 0.001% Tween 20. The final reaction volume of the reaction in each well was 12 μL. The highest concentration of compound was 125 μM and the DMSO concentration was 1.25%. After pre-incubation, 3 μL of CMP dissolved in assay buffer was added to each reaction. The final CMP concentration was 45 μM. The reaction was incubated at 37° C. for 15 minutes. Then 3 μL of Malachite Green Reagent A was added to each reaction. Spin the plate briefly in centrifuge for 30 seconds. After incubation for additional 10 minutes at room temperature, 3 μL of malachite green Reagent B was added to each reaction. Spin the plate briefly in centrifuge for 30 seconds. After 20 minutes of incubation at room temperature, the signal was read on a TECAN reader at OD620. The reaction containing CD73 enzyme, substrate CMP and DMSO (no compound) is used as an assay positive control while the reaction containing substrate CMP and DMSO without the CD73 enzyme as an assay negative control. IC50 values were calculated by plotting the logarithm of the compound concentration and the percent inhibition using the appropriate program in GraphPad Prism.
The biochemical inhibitions of CD73 enzymatic activities by the compounds of the present invention were determined by the assay described above, and the resulting IC50 values are shown in Table 1.

For test [2], the system named is human peripheral blood mononuclear cells (PBMCs). The test is described as follows: IFNγ cytokine production in human PBMCs with AMP and CD3/CD28 antibody beads (HTRF). Conditions: compound 10 μM, 50 μM AMP, 72 hours. The test is classed as cell-based. As to the method: Test Example 2 Determination of Compound of the Present Invention Modulates Cellular Immune Function by IFNγ Cytokine Production
Lymphocyte medium and TexMACS medium were incubated in a water bath at 37° C. 10 mL of incubated lymphocyte medium was added to a 50 mL conical tube. The cells were quickly thawed in a 37° C. water bath and transferred to a 50 ml tube and the tube gently swirled. The cell suspension was centrifuged at 1100 rpm for 10 minutes at room temperature. The supernatant was removed, and the cell pellet gently resuspended in 10 mL of TexMACS medium. The cells were counted to make 5×10^5 cells/ml. 100 μL of 5×10^5 cells/ml of PBMCs seeds, inserted into a 96-well plate (cell density of 50,000 cells/well), and the most outer edge wells of the 96-well plate were filled with water and were not used for the test. […] Read the values of 665 nm and 620 nm on a PHERAstar FSX Multilabel Reader.
Calculated ratio=(signal at 665 nm/signal at 620 nm)×10^4, which reflected the “raw signal”. […] The concentration of IFNγ cytokine of each sample corresponding to the standard curve was calculated. […]
The production of IFNγ cytokines by the compounds of the present invention was measured by the above test. […]

Sequence of recombinant human 5′-nucleotidase (CD73) (P21589 27-574): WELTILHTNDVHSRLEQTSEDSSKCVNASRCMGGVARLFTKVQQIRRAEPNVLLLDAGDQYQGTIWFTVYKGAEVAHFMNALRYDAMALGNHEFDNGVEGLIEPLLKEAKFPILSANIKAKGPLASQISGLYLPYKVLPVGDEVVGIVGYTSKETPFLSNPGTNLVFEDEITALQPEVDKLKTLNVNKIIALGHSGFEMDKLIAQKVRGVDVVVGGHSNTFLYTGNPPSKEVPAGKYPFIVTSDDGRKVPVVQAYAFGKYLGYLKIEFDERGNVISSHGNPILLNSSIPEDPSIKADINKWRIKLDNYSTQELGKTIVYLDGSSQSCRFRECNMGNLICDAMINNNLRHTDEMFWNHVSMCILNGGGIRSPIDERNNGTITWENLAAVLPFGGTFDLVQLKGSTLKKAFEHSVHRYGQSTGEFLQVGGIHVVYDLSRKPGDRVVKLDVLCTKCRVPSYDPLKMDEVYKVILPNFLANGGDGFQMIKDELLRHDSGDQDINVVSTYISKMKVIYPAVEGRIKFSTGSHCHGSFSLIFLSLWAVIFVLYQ

On to `O=P(O)(O)COC[C@H]1O[C@@H](n2ncc3c(N4CC5(C4)OCc4cc(Cl)ccc45)nc(Cl)nc32)[C@H](O)[C@@H]1O` [Example 5, ((((2R,3S,4R,5R)-5-(6-chloro-4-(5′-chloro-3′H-spiro[azetidine-3,1′-isobenzofuran]-1-yl)-1H-pyrazolo[3,4-d]pyrimidin-1-yl)-3,4-dihydroxytetrahydrofuran-2-yl)methoxy)methyl)phosphonic acid], for which the IC50 in test [1] came to 0.074 nM.
Still for that read-out and setting: the figure for `COc1ccc2c(c1)CCC21CN(c2nc(Cl)nc3c2cnn3[C@@H]2O[C@H](COCP(=O)(O)O)[C@@H](O)[C@H]2O)C1` [Example 7, ((((2R,3S,4R,5R)-5-(6-chloro-4-(5′-methoxy-2′,3′-dihydrospiro[azetidine-3,1′-inden]-1-yl)-1H-pyrazolo[3,4-d]pyrimidin-1-yl)-3,4-dihydroxytetrahydrofuran-2-yl)methoxy)methyl)phosphonic acid] is 0.13 nM.
Consider `O=P(O)(O)Cc1cccc(OC[C@H]2O[C@@H](n3ncc4c(N5CC6(CCCCC6)C5)nc(Cl)nc43)[C@H](O)[C@@H]2O)c1` [Example 12, (3-(((2R,3S,4R,5R)-5-(6-chloro-4-(2-azaspiro[3.5]nonan-2-yl)-1H-pyrazolo[3,4-d]pyrimidin-1-yl)-3,4-dihydroxytetrahydrofuran-2-yl)methoxy)benzyl)phosphonic acid], for which, in test [1], the IC50 is 300 nM.
As to `O=P(O)(O)COC[C@H]1O[C@@H](n2ncc3c(N4CC5(CCc6ccc(F)cc65)C4)nc(Cl)nc32)[C@H](O)[C@@H]1O` [Example 6, ((((2R,3S,4R,5R)-5-(6-chloro-4-(6′-fluoro-2′,3′-dihydrospiro[azetidine-3,1′-inden]-1-yl)-1H-pyrazolo[3,4-d]pyrimidin-1-yl)-3,4-dihydroxytetrahydrofuran-2-yl)methoxy)methyl)phosphonic acid], the IC50 in test [1] amounted to 0.25 nM.
On to `CC(C)OC(=O)OCOP(=O)(COC[C@H]1O[C@@H](n2ncc3c(N4CC5(CCc6ccccc65)C4)nc(Cl)nc32)[C@H](O)[C@@H]1O)OCOC(=O)OC(C)C` [Example 4, ((((((2R,3S,4R,5R)-5-(6-chloro-4-(2′,3′-dihydrospiro[azetidine-3,1′-inden]-1-yl)-1H-pyrazolo[3,4-d]pyrimidin-1-yl)-3,4-dihydroxytetrahydrofuran-2-yl)methoxy)methyl)phosphoryl)bis(oxy))bis(methylene) diisopropyl decarbonate], for which the IC50 in test [1] stood at 710 nM.
Regarding `O=P(COC[C@H]1O[C@@H](n2ncc3c(N4CC5(CCc6ccccc65)C4)nc(Cl)nc32)[C@H](O)[C@@H]1O)(Oc1ccccc1)Oc1ccccc1` [Example 10, diphenyl((((2R,3S,4R,5R)-5-(6-chloro-4-(2′,3′-dihydrospiro[azetidine-3,1′-inden]-1-yl)-1H-pyrazolo[3,4-d]pyrimidin-1-yl)-3,4-dihydroxytetrahydrofuran-2-yl)methoxy)methyl)phosphonate], in test [1], the IC50 is 7.6 nM.
With `O=P(O)(O)COC[C@H]1O[C@@H](n2ncc3c(N4CC5(CCCCC5)C4)nc(Cl)nc32)[C@H](O)[C@@H]1O` [Example 1, ((((2R,3S,4R,5R)-5-(6-chloro-4-(2-azaspiro[3.5]nonan-2-yl)-1H-pyrazolo[3,4-d]pyrimidin-1-yl)-3,4-dihydroxytetrahydrofuran-2-yl)methoxy)methyl)phosphonic acid], the IC50 in test [1] stood at 0.11 nM. For the same compound, in test [2], the “Response rate of IFNγ cytokines by a compound (fold) as compared to vehicle control (DMSO)” value is listed as 4.1 folds.
Turning to `CC(C)OC(=O)OCOP(=O)(O)COC[C@H]1O[C@@H](n2ncc3c(N4CC5(CCc6ccccc65)C4)nc(Cl)nc32)[C@H](O)[C@@H]1O` [Example 3, ((((((2R,3S,4R,5R)-5-(6-chloro-4-(2′,3′-dihydrospiro[azetidine-3,1′-inden]-1-yl)-1H-pyrazolo[3,4-d]pyrimidin-1-yl)-3,4-dihydroxytetrahydrofuran-2-yl)methoxy)methyl)(hydroxy)phosphoryl)oxy)methyl isopropyl carbonate], the IC50 in test [1] is 2.1 nM.
On to `O=P(O)(O)COC[C@H]1O[C@@H](n2ncc3c(N4CC5(CCc6ccccc65)C4)nc(Cl)nc32)[C@H](O)[C@@H]1O` [Example 2, ((((2R,3S,4R,5R)-5-(6-chloro-4-(2′,3′-dihydrospiro[azetidine-3,1′-inden]-1-yl)-1H-pyrazolo[3,4-d]pyrimidin-1-yl)-3,4-dihydroxytetrahydrofuran-2-yl)methoxy)methyl)phosphonic acid], for which the IC50 in test [1] is 0.013 nM. The “Response rate of IFNγ cytokines by a compound (fold) as compared to vehicle control (DMSO)” value in test [2] came out at 4.3 folds.
Take `O=P(O)(COC[C@H]1O[C@@H](n2ncc3c(N4CC5(CCc6ccccc65)C4)nc(Cl)nc32)[C@H](O)[C@@H]1O)Oc1ccccc1` [Example 11, phenyl hydrogen ((((2R,3S,4R,5R)-5-(6-chloro-4-(2′,3′-dihydrospiro[azetidine-3,1′-inden]-1-yl)-1H-pyrazolo[3,4-d]pyrimidin-1-yl)-3,4-dihydroxytetrahydrofuran-2-yl)methoxy)methyl)phosphonate]: the IC50 in test [1] came out at 0.9 nM.
Same read-out and setting: to `CC(OC(=O)C(C)(C)C)OP(=O)(O)COC[C@H]1O[C@@H](n2ncc3c(N4CC5(CCc6ccccc65)C4)nc(Cl)nc32)[C@H](O)[C@@H]1O` (stereo partly drawn) [Example 9, 1-((((((2R,3S,4R,5R)-5-(6-chloro-4-(2′,3′-dihydrospiro[azetidine-3,1′-inden]-1-yl)-1H-pyrazolo[3,4-d]pyrimidin-1-yl)-3,4-dihydroxytetrahydrofuran-2-yl)methoxy)methyl)(hydroxy)phosphoryl)oxy)ethyl pivalate] belongs 8.5 nM.
